According to article PMC9962512, “Synthesis and Anti-Angiogenic Activity of Novel c(RGDyK) Peptide-Based JH-VII-139-1 Conjugates” (Pharmaceutics, 2023):
Like-named read-outs stand apart in the source and are kept apart here.

Experiments:
[1] = tested on: K562 cells; assay: cells; format: cell-based; conditions: for TGI: total growth inhibition
Experimental: (§1) HeLa, MCF7, MDA-MB-231 and K562 cancer cell lines were provided by ATCC (American Type Culture Collection). Cells were incubated at 37 °C with 5% CO2. HeLa, MCF7 and MDA-MB-231 cells were maintained in DMEM, while K562 cells were maintained in RPMI medium, both supplemented with 10% (v/v) fetal bovine serum (FBS) and antibiotics/antimycotics.
(§2) HeLa, MCF7, MDA-MB-231 and K562 cells were seeded in 96-well plates (3 × 10^3 cells per well) and grown in medium supplemented with 10% FBS as monolayers at 37 °C in a 5% CO2 incubator. One day after seeding, cells were exposed to increasing concentrations of the inhibitors for 48 h. The viability of the cells was estimated by an (3-(4,5-imethylthiazol-2-yl)-2,5-diphenyltetrazolium bromide (MTT) metabolic assay as described previously, and the percentage growth inhibition (GI50, TGI, IC50) was calculated according to National Cancer Institute recommendations as referred to Leonidis et al.. Values shown represent the means ± SE of three independent experiments.

[2] = tested on: MDA-MB-231 cells; assay: cells; format: cell-based; conditions: for TGI: total growth inhibition
Experimental: as §1, §2

[3] = tested on: HeLa cells; assay: cells; format: cell-based; conditions: 48 h; for TGI: total growth inhibition
Experimental: as §1, §2

[4] = physchem; conditions: buffer, pH 5.2
Experimental: (§3) The mixture was then incubated at 37 °C, samples were collected at predetermined time points (0, 1, 2, 3, 4, 5, 24 and 48 h), and analyzed by LC-MS. Results are presented as the mean ± of SD after repeating the experiment three times.

[5] = biological target: T1, human SRPK1 (Homo sapiens, UniProt Q96SB4); assay: In vitro kinase assay (GST-SRPK1, GST-LBRNt(62-92) substrate, radioactive); format: biochemical; conditions: 25 μM ATP; mean ± SD of three experiments; read-out: IC50 (nΜ) for SRPK1
T1 construct: made in house; host or cells: bacteria (pGEX-2T vector)
T1 sequence (Q96SB4 whole entry): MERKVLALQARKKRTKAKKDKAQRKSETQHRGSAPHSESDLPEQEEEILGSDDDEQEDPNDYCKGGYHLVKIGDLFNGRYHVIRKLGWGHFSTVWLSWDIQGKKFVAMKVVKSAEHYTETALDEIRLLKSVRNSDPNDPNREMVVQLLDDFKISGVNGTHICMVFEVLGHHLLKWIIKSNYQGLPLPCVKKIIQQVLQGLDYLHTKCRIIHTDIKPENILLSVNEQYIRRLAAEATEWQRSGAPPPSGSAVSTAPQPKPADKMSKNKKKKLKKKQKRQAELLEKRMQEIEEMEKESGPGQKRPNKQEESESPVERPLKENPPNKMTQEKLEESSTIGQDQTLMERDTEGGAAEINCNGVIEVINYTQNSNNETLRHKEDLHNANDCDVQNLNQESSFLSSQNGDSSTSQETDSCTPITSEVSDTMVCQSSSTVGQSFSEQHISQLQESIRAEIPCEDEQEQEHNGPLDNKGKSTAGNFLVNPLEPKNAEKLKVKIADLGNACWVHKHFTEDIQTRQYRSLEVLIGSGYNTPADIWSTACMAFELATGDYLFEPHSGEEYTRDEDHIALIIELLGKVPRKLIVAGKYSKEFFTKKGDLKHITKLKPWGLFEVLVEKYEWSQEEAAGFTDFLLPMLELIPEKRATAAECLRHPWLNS
Experimental: The pGEX-2T bacterial expression vector (Amersham Biosciences GmbH, Freiburg, Germany) was used to construct plasmids that encode human SRPK1 and a fragment of the N-terminal domain of turkey LBR comprising amino acids 62–92 (LBRNt(62–92)). The GST-fusion proteins were produced in bacteria and purified using glutathione-Sepharose (Amersham Biosciences) according to the manufacturer’s instructions. Kinase assays were carried out in a total volume of 25 μL containing 0.5 μg GST-SRPK1, 1.5 μg GST-LBRNt(62–92) as substrate, 12 mM Hepes pH 7.5, 10 mM MgCl2, 25 μM ATP, and increasing concentrations of the inhibitors as indicated. In all assays, the final concentration of dimethyl sulfoxide (DMSO) was adjusted to 4%. Phosphorylated GST-LBRNt(62–92) was detected by autoradiography using Super RX (Fuji medical X-ray film,(Fujifilm Holdings Corporation, Tokyo, Japan)). Incorporated radioactivity was quantified by excising the radioactive bands from the SDS-PAGE gel and scintillation counting.

[6] = Stability in Dulbecco's Modified Eagle Medium (+10% FBS); format: in vitro ADME; conditions: for half-life at 396 µg/mL: DMEM + 10% FBS, read-out: half-life t1/2
Experimental: Conjugates geo75, geo77, geo85 and geo107 (200 μg in 5 μL DMSO) were diluted in 0.5 mL DMEM (+10% fetal bovine serum) mixture and incubated at 37 °C. At predetermined time intervals, 50 μL of the mixture was removed and quenched with 150 μL water/acetonitrile/formic acid solution (100/100/0.1 volume ratio) and the sample was analyzed by LC-MS. Three independent experiments were carried out and the results are presented as the mean ± standard deviation.

[7] = Stability in human plasma; format: in vitro ADME; conditions: for half-life at 495 µg/mL: human, read-out: half-life t1/2
Experimental: First, 250 μg of (JH-VII-139-1)-c(RGDyK)-based conjugates were diluted in 5 μL DMSO and the mixture was added to 0.5 mL of human plasma. The mixtures were incubated at 37 °C. 50 μL of aliquot was removed at predetermined time points and quenched with 150 μL ice-cold acetonitrile (+0.1% formic acid). Then, the mixture was centrifuged at 10,000 rpm for 10 min. Then, 50 μL of supernatant was added to 50 μL of ultrapure water (+0.1% formic acid) and analyzed by LC-MS. Results are presented as the mean ± SD of three independent experiments.

[8] = physchem; conditions: buffer, pH 7.4
Experimental: as §3

[9] = tested on: MCF7 cells; assay: cells; format: cell-based; conditions: for TGI: total growth inhibition
Experimental: as §1, §2

[10] = MTT assay, summary over the cell panel; format: cell-based
Experimental: as §1, §2

[11] = tested on: HeLa, MCF-7, MDA-MB-231 and K562 cancer cells; assay: MTT assay, summary over the cell panel; format: cell-based; conditions: HeLa, MCF-7, MDA-MB-231 and K562; 48 h; read-out: GI50 (cytostatic effect), range over compounds and cell lines
Experimental: as §1, §2

[12] = tested on: angiogenesis in AMD animal model; parameters: method as in PMID 29478907; conditions: AMD animal model ref 27; cited from earlier work
[13] = tested on: SRPK1; parameters: method as in PMID 29478907; conditions: SRPK1 ref 27; cited from earlier work
[14] = tested on: zebrafish Tg(kdrl:gfp) embryos; assay: Zebrafish angiogenesis assay, intersegmental vessels (ISVs); format: in vivo; conditions: 10 μM, added 24 hpf, imaged 72 hpf
Experimental: The Tg(kdrl:gfp)^s843 [38] was used to measure angiogenesis. Zebrafish breeding was carried out according to the European Directive 2010/63 and the Recommended Guidelines for Zebrafish Husbandry Conditions.
Zebrafish Tg(kdrl:gfp)^s843 embryos were raised in E3 medium up to 24 hpf; then dechorinated and finally transferred to a 12-well plate (10 embryos per well). Each compound was dissolved in DMSO and then added in the wells at the following final concentrations: 10 μM JH-VII-139-1 and c(RGDyK), and 1.3 μM geo75, geo77, geo85, geo107. Treated embryos and control embryos (at the corresponding DMSO concentration) were kept at 28 °C and imaged at 72 hpf.
After anesthetizing embryos with 0.4% tricaine methanesulfonate (MS222), a fluorescent image was acquired using a Hamamatsu ORCA-Flash4.0LT digital camera. We used the total length of 8 intersegmental vessels (ISVs) per embryo and the width from each of the above ISVs was measured at three different points, i.e., the top, the middle, and the bottom point of each ISV, and then the average width was estimated. We measured the 8 ISVs that flank the end of the yolk extension. Length and widths were measured using the open-source software ImageJ 1.53a (http://imagej.nih.gov/ij (accessed on 30 May 2022)). A total of 30 embryos (4–7 per group) from independent experiments were measured. […]

[15] = buffer, pH 7.4
Experimental: as §3

[16] = tested on: α5β1 integrins; parameters: method as in PMID 28074920; conditions: α5β1 ref 25; cited from earlier work
[17] = DMEM with 10% fetal bovine serum, 37 °C

Compound	GI50 ([1]; 48 h)	IC50 ([1]; 48 h)	GI50 ([2]; 48 h)	IC50 ([2]; 48 h)	GI50 [3]	IC50 [3]	half-life [4]	IC50 [5]	half-life at 396 µg/mL [6, 17]	half-life at 495 µg/mL ([7]; 37 °C)	half-life [8]	TGI ([1]; K562, 48 h)	TGI ([2]; MDA-MB-231, 48 h)	TGI ([9]; MCF7, 48 h)	TGI ([3]; HeLa)	inhibition of total width of ISVs [14]	IC50 [10]	half-life t1/2 [15]	GI50 ([9]; 48 h)	IC50 ([9]; 48 h)	further results
CCc1cc2c(cc1-c1ccn(C(=O)NCCOCCOCCNC(=O)NCCCC[C@@H]3NC(=O)[C@@H](Cc4ccc(O)cc4)NC(=O)[C@H](CC(=O)O)NC(=O)CNC(=O)[C@H](CCCNC(=N)N)NC3=O)n1)C(C)(C)c1[nH]c3cc(C#N)ccc3c1C2=O [geo85]	> 100 µM	> 100 µM	> 100 µM	> 100 µM	> 100 µM	> 100 µM	> 48 h	0.042 ± 0.0019 µM	> 48 h	> 48 h	> 48 h										hydrolysis ([6]; DMEM, after 24 h): 10%; metabolised at 24 h, 495 µg/mL ([7]; after 24 h, read-out: hydrolysis): 10%
CCc1cc2c(cc1-c1cc[nH]n1)C(C)(C)c1[nH]c3cc(C#N)ccc3c1C2=O [JH-VII-139-1, 9-Ethyl-6,6-dimethyl-11-oxo-8-(1H-pyrazol-3-yl)-6,11-dihydro-5H-benzo[b]carbazole-3-carbonitrile]								0.032 ± 0.0005 µM				15 ± 0.5 μΜ	21 ± 0.4 μΜ	19 ± 0.3 μΜ	19 ± 0.2 μΜ	non-significant trend					GI50 ([1]; Homo sapiens, K562, 48 h, 50% growth inhibition, read-out: GI50): 8 ± 0.5 µM; IC50 ([1]; Homo sapiens, K562, 48 h, cytotoxic effect, read-out: IC50): 13 ± 0.3 µM; GI50 ([2]; Homo sapiens, MDA-MB-231, 48 h, 50% growth inhibition, read-out: GI50): 11 ± 0.3 µM; IC50 ([2]; Homo sapiens, MDA-MB-231, 48 h, cytotoxic effect, read-out: IC50): 18 ± 0.5 µM; GI50 ([9]; Homo sapiens, MCF7, 48 h, 50% growth inhibition, read-out: GI50): 9 ± 0.2 µM; IC50 ([9]; Homo sapiens, MCF7, 48 h, cytotoxic effect, read-out: IC50): 8 ± 0.6 µM; GI50 ([3]; Homo sapiens, HeLa, 50% growth inhibition, read-out: GI50): 8 ± 0.2 µM; IC50 ([3]; Homo sapiens, HeLa, cytotoxic effect, read-out: IC50): 14 ± 0.8 µM; IC50 at 48 h ([10]; human, MDA-MB-231 and K562 cancer cells, HeLa, MCF-7, MDA-MB-231 and K562, 48 h, read-out: IC50 (cytotoxic effect), range over compounds and cell lines): 3 to 18 µM; GI50 [11]: 4 to 12 µM; effect on angiogenesis [12]: blocks angiogenesis; half-life at 396 µg/mL ([6]; bovine, DMEM with 10% fetal bovine serum (cell-free), 37 °C): > 48 h; half-life at 495 µg/mL ([7]; plasma, 37 °C): > 48 h; IC50 [13]: 0.0011 µM
CCc1cc2c(cc1-c1ccn(C(=O)OCCOCCOCCOC(=O)NCCCC[C@@H]3NC(=O)[C@@H](Cc4ccc(O)cc4)NC(=O)[C@H](CC(=O)O)NC(=O)CNC(=O)[C@H](CCCNC(=N)N)NC3=O)n1)C(C)(C)c1[nH]c3cc(C#N)ccc3c1C2=O [geo75]							> 48 h	0.035 ± 0.0011 µM		0.183 h							3 to 18 µM	24h 15min h min			time after which almost completely hydrolyzed ([6]; DMEM, 37 °C): 9 h; time after which almost completely hydrolyzed ([7]; 37 °C): 1 h
CCc1cc2c(cc1-c1ccn(C(=O)NCCOCCOCCNC(=O)N[C@@H](CCCCN)C(=O)NCCCC[C@@H]3NC(=O)[C@@H](Cc4ccc(O)cc4)NC(=O)[C@H](CC(=O)O)NC(=O)CNC(=O)[C@H](CCCNC(=N)N)NC3=O)n1)C(C)(C)c1[nH]c3cc(C#N)ccc3c1C2=O [geo107]							> 48 h		> 48 h	> 48 h	> 48 h										residual concentration (of initial concentration), lowest ([6]; cell media (DMEM), up to 48 h): ≥ 80%; residual concentration (of initial concentration), lowest ([7]; up to 48 h): ≥ 80%
CCc1cc2c(cc1-c1ccn(C(=O)CCCC(=O)NCCCC[C@@H]3NC(=O)[C@@H](Cc4ccc(O)cc4)NC(=O)[C@H](CC(=O)O)NC(=O)CNC(=O)[C@H](CCCNC(=N)N)NC3=O)n1)C(C)(C)c1[nH]c3cc(C#N)ccc3c1C2=O [geo77]	12 ± 0.9 µM	17 ± 0.5 µM	8 ± 0.5 µM	10 ± 0.3 µM	5 ± 0.2 µM	9 ± 0.2 µM		0.03 ± 0.0017 µM		0.167 to 0.833 h							3 to 18 µM	1 h 44 min h min	4 ± 0.4 µM	3 ± 0.4 µM	
N=C(N)NCCC[C@@H]1NC(=O)[C@H](CCCCN)NC(=O)[C@@H](Cc2ccc(O)cc2)NC(=O)[C@H](CC(=O)O)NC(=O)CNC1=O [c(RGDyK)]	[…]	[…]	[…]	[…]	79 ± 2.2 µM	[…]						[…]	[…]	[…]	[…]	non-significant trend			[…]	[…]	IC50 [16]: 0.236 ± 0.045 µM
